Target: T1, human Cystic Fibrosis Transmembrane Conductance Regulator (CFTR) harboring the ΔF508 mutation (Homo sapiens, UniProt P13569, DEL508-508)
T1 construct: expressed in transfected cells; host or cells: H441 carcinoma line (G418 selection)
Experiment: H441 cell Emax and EC50: HRP-tagged ΔF508-CFTR cell surface luminescence assay
Format: cell-based
Settings: H441 cells expressing ΔF508-CFTR-HRP, 27° C., two nights; for EC50: 15-point dose-response, top 24.5 μM; for Emax: NCI-H441, % of maximum VX809 signal
Text: Two cell lines were used, the H441 carcinoma line and the CFHBE41o-(41o-) human bronchial epithelial line. Both cell lines expressed human Cystic Fibrosis Transmembrane Conductance Regulator (CFTR) harboring the ΔF508 mutation and with an in-frame fusion in CFTR extracellular loop 4 of Horse Radish Peroxidase (HRP) under control of the CMV promoter. In the presence of the HRP tag, ΔF508-CFTR transported to the cell surface was detectable upon addition of an HRP substrate (Luminata Forte). Both cell types were cultivated at 37° C. with CO2.
For both cell types, the medium was changed every other day unless the culture was at low % confluence. Cells were used for the assays at ˜75% confluence.
To a polypropylene (PP) 384-well plate, 15 μls DMSO was added to all wells in columns 1-22 and 24 (low Control). 15 μls of 260 μM VX809 (Lumacaftor), Selleckchem S1565, was added to column 23 wells (high Control). 15 μls of 10 mM test compound or VX809 (control) were added to wells of row A. Serial dilutions of Row A compound were performed 2×15 μls in rows A through O (15-point).
A PP, 384-well plate containing the appropriate cell culture medium was prepared for each assay plate with 100 μls per well. For the doxycycline-induced 41o-cells, doxycycline for both the assay plate and the medium dilution plate was added at 0.0005 mg/ml to the medium.
Both cell lines were plated for the assay at 30 uls per 384-well at 3.4×10^e5 cells per ml (˜10K cells/well). H441 cells were plated on opaque, white, Corning plate 3704. 41o-cells were plated on collagen-coated opaque, white, Corning plate 356665. For 41o-cells, doxycycline was added to the medium.
Using FX (Beckman) protocol, 10 uls diluted compound or medium was added per well to the Assay Plate as: 2 μls DMSO Dilution plate well is diluted in 100 uls of the Medium Dilution Plate well, mixed, and 10 uls is transferred to the Assay Plate.
The final assay dilution series is 24.5, 12.3, 6.1, 3.1, 1.5, 0.8, 0.4, 0.2, 0.1, 0.05, 0.02, 0.01, 0.006, 0.003, 0.001 and 0 μM. The 41o-assay plates were incubated at 37° C. w/CO2, the H441 assay plates were incubated at 27° C. w/CO2, each overnight for two nights.
After being brought to room temperature, the assay plate liquid was removed. 30 μls of Luminata Forte (Millipore ELLUF0100) was added per well and incubated at room temperature for 10 min. The plates were then read on a Topcount, protocol LumiMatti (CPS, luminescence). The data was analyzed for % of maximum, maximum VX809 signal, and EC50 using Pearl and SPEED tools.

T1 sequence (P13569 with tags, fused parts or gaps DEL508-508): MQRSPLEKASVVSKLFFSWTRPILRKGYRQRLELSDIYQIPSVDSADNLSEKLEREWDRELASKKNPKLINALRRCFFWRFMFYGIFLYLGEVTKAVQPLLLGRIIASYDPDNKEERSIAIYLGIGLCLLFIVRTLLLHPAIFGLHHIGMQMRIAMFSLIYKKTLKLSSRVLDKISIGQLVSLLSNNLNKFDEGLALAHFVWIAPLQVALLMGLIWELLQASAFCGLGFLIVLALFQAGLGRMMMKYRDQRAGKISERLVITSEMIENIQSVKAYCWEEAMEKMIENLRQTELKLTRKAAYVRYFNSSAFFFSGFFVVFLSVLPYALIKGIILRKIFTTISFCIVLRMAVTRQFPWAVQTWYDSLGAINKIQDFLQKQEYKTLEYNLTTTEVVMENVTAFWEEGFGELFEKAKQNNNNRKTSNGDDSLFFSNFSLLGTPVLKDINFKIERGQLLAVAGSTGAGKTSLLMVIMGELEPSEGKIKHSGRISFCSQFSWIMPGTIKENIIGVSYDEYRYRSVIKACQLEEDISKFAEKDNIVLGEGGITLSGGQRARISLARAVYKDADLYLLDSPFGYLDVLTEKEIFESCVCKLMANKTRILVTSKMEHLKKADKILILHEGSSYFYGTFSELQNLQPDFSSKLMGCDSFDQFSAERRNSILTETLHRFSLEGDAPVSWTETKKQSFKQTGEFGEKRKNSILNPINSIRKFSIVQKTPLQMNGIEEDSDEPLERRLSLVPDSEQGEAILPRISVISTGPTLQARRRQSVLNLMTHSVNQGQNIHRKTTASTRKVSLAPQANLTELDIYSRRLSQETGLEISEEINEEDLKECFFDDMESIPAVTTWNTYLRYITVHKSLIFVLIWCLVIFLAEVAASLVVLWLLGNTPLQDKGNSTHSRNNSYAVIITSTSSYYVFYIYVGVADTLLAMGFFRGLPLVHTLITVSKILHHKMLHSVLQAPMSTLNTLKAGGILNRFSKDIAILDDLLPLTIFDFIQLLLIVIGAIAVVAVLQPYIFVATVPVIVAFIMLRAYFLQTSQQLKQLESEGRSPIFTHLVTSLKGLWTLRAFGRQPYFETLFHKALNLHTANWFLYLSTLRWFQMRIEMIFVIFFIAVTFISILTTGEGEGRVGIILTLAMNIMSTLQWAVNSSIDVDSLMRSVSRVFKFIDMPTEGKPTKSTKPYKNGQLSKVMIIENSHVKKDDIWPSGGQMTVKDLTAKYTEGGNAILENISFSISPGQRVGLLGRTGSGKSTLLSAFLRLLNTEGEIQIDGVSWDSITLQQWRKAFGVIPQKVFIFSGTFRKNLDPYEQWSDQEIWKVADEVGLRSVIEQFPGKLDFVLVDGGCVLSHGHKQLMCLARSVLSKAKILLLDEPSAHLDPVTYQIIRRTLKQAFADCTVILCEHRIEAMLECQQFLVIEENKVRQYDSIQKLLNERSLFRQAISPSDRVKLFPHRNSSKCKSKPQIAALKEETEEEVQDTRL

In the case of `COCCOC12CC3CC(C1)CC([C@H](NC(=O)c1ccc4ccccc4c1OCc1ccc(C(F)(F)F)cc1)C(=O)O)(C3)C2` [compound 43], the EC50 is reported as 267 nM and the Emax is reported as 128%.

`O=C(N[C@H](C(=O)O)C12CC3CC(CC(OCC(F)(F)F)(C3)C1)C2)c1ccc2cc(F)ccc2c1OCc1ccc(C(F)(F)F)cc1` [compound 26] gave an EC50 of 183 nM and an Emax of 113%.

In the case of `O=C(N[C@H](C(=O)O)C12CC3CC(CC(C3)C1)C2)c1ccc2sccc2c1OCc1nc2ccccc2s1` [compound 113, (2S)-2-(1-adamantyl)-2-[[4-(1,3-benzothiazol-2-ylmethoxy)benzothiophene-5-carbonyl]amino]acetic acid], the EC50 is reported as 596 nM and the Emax is reported as 184%.

For `CC(C)OC(=O)[C@@H](NC(=O)c1ccc2cccnc2c1OCc1ccc(C(F)(F)F)cc1)C12CC3CC(CC(C3)C1)C2` [compound 69], the EC50 was ≥ 24500 nM and the Emax was 28.9%.

Molecule `COc1cccc2c(OCc3ccc(C(F)(F)F)cc3)c(C(=O)N[C@H](C(=O)O)C34CC5CC(CC(C5)C3)C4)ccc12` [compound 12] has an EC50 of 709 nM and an Emax of 154%.

Molecule `COc1c(F)c(COc2c(C(=O)N[C@H](C(=O)O)C34CC5CC(CC(C5)C3)C4)ccc3ccccc23)c(F)c(F)c1C(F)(F)F` [compound 86] has an EC50 of 526 nM and an Emax of 24%.

`O=C(O)[C@@H](n1c(=O)c2ccc3ccccc3c2n(Cc2ccc(C(F)(F)F)cc2)c1=O)C12CC3CC(CC(C3)C1)C2` [compound 137, (2S)-2-(1-adamantyl)-2-[2,4-dioxo-1-[[4-(trifluoromethyl)phenyl]methyl]benzo[h]quinazolin-3-yl]acetic acid] was tested, and the EC50 was 1600 nM and the Emax was 5.3%.

`O=C(N[C@H](C(=O)O)C12CC3CC(CC(C3)C1)C2)c1ccc2occc2c1OCc1nc2ccccc2s1` [compound 122, (2S)-2-(1-adamantyl)-2-[[4-(1,3-benzothiazol-2-ylmethoxy)benzofuran-5-carbonyl]amino]acetic acid] showed an EC50 of 1510 nM and an Emax of 171%.

For `O=C(N[C@H](C(=O)O)C12CC3CC(CC(C3)C1)C2)c1sc2ccccc2c1OCC1CCCCC1` [compound 94], the EC50 was 915 nM and the Emax was 257%.

Work on `O=C(N[C@H](C(=O)O)C12CC3CC(CC(O)(C3)C1)C2)c1ccc2ccccc2c1OCc1ccc(C(F)(F)F)cc1` [compound 17] yielded an EC50 of 903 nM and an Emax of 156%.

With `O=C(N[C@H](C(=O)O)C12CC3CC(CC(C3)C1)C2)c1ccc2ccccc2c1OCC1(C(F)(F)F)CC1` [compound 102, (2S)-2-(1-adamantyl)-2-[[1-[[1-(trifluoromethyl)cyclopropyl]methoxy]naphthalene-2-carbonyl]amino]acetic acid] the EC50 was 18000 nM and the Emax was 53.1%.

`Cc1ccc2ccc(C(=O)N[C@H](C(=O)O)C34CC5CC(CC(C5)C3)C4)c(OCc3ccc(C(F)(F)F)cc3)c2c1` [compound 18] was tested, and the EC50 was 2180 nM and the Emax was 370%.

`C[C@@H](OC12CC3CC(C1)CC([C@H](NC(=O)c1ccc4cc(F)ccc4c1OCc1ccc(C(F)(F)F)cc1)C(=O)O)(C3)C2)C(=O)O` [compound 36] gave an Emax of 0.9%.

`O=C(N[C@H](C(=O)O)C12CC3CC(CC(C3)C1)C2)c1ccc2cccnc2c1OCC1CCCCC1` [compound 5] was tested, and the EC50 was 1160 nM and the Emax was 249%.

Work on `O=C(N[C@H](C(=O)O)C12CC3CC(CC(O)(C3)C1)C2)c1ccc2cccnc2c1OCc1ccc(C(F)(F)F)cc1` [compound 22] yielded an EC50 of 3660 nM and an Emax of 175%.

`O=C(N[C@H](C(=O)O)C12CC3CC(CC(C3)C1)C2)c1ccc2occc2c1OCC1CCCCC1` [compound 116, (2S)-2-(1-adamantyl)-2-[[4-(cyclohexylmethoxy)benzofuran-5-carbonyl]amino]acetic acid] was tested, and the EC50 was 1770 nM and the Emax was 212%.

Work on `O=C(N[C@H](C(=O)O)C12CC3CC(CC(C3)C1)C2)c1sc2ccccc2c1OCc1ccc(Cl)c(Cl)c1` [compound 24] yielded an EC50 of 726 nM and an Emax of 159%.

Work on `O=C(N[C@H](C(=O)O)C12CC3CC(CC(C3)C1)C2)c1ccn2cccc2c1OCc1ccc(OC(F)(F)F)cc1` [compound 118, (2S)-2-(1-adamantyl)-2-[[8-[[4-(trifluoromethoxy)phenyl]methoxy]indolizine-7-carbonyl]amino]acetic acid; 2,2,2-trifluoroacetic acid] yielded an EC50 of 280 nM and an Emax of 141%.

`O=C(N[C@H](C(=O)O)C12CC3CC(CC(C3)C1)C2)c1ccc2ccccc2c1OCc1nc2ccccc2s1` [compound 65] gave an EC50 of 1320 nM and an Emax of 198%.

With `O=C(N[C@H](C(=O)O)C12CC3CC(CC(C3)C1)C2)c1cc(F)c2ccccc2c1OCc1ccc(C(F)(F)F)cc1` [compound 3] the EC50 was 406 nM and the Emax was 156%.

With `O=C(N[C@H](C(=O)O)C12CC3CC(CC(C3)C1)C2)c1ccn2cccc2c1OCc1ccc(C(F)(F)F)cc1` [compound 117, (2S)-2-(1-adamantyl)-2-[[8-[[4-(trifluoromethyl)phenyl]methoxy]indolizine-7-carbonyl]amino]acetic acid] the EC50 was 172 nM and the Emax was 160%.

Molecule `COC12CC3CC(C1)CC([C@H](NC(=O)c1ccc4ccccc4c1OCc1ccc(C(F)(F)F)cc1)C(=O)O)(C3)C2` [compound 85] has an EC50 of 375 nM and an Emax of 131%.

Work on `CC(C)OC12CC3CC(C1)CC([C@H](NC(=O)c1ccc4ccccc4c1OCc1ccc(C(F)(F)F)cc1)C(=O)O)(C3)C2` [compound 11] yielded an EC50 of 401 nM and an Emax of 157%.

`O=C(N[C@H](C(=O)O)C12CC3CC(CC(O)(C3)C1)C2)c1ccc2cc(F)ccc2c1OCc1ccc(S(F)(F)(F)(F)F)cc1` [compound 50] was tested, and the EC50 was 2170 nM and the Emax was 76.4%.

For `O=C(N[C@H](C(=O)O)C12CC3CC(CC(C3)C1)C2)c1ccc2ccccc2c1OCc1ccc(C(F)(F)F)cc1` [compound 96, (2S)-2-(1-adamantyl)-2-[[1-[[4-(trifluoromethyl)phenyl]methoxy]naphthalene-2-carbonyl]amino]acetic acid], the EC50 was 398 nM and the Emax was 180%.

`CC(C)C#CCOc1c(C(=O)N[C@H](C(=O)O)C23CC4CC(CC(C4)C2)C3)ccc2cc(F)ccc12` [compound 72] was tested, and the EC50 was 11200 nM and the Emax was 92.7%.

With `CS(=O)(=O)c1ccc(COc2c(C(=O)N[C@H](C(=O)O)C34CC5CC(CC(O)(C5)C3)C4)ccc3ccccc23)cc1` [compound 10] the EC50 was 16900 nM and the Emax was 29.2%.

`O=C(N[C@H](C(=O)O)C12CC3CC(CC(OCCO)(C3)C1)C2)c1ccc2ccccc2c1OCc1ccc(C(F)(F)F)cc1` [compound 20] was tested, and the EC50 was 780 nM and the Emax was 144%.

Work on `O=C(N[C@H](C(=O)O)C12CC3CC(CC(C3)C1)C2)c1ccc2cc(F)ccc2c1OCc1ccc(OC(F)(F)F)cc1` [compound 88] yielded an Emax of -9.7%.

Molecule `Cc1ccc2c(c1C)N(Cc1ccc(C(F)(F)F)cc1)CN([C@H](C(=O)O)C13CC4CC(CC(C4)C1)C3)C2=O` [compound 136, (2S)-2-(1-adamantyl)-2-[7,8-dimethyl-4-oxo-1-[[4-(trifluoromethyl)phenyl]methyl]-2H-quinazolin-3-yl]acetic acid] has an EC50 of 1580 nM and an Emax of 17%.

Work on `O=C(N[C@H](C(=O)O)C12CC3CC(CC(C3)C1)C2)c1ccc2sccc2c1OCC1CCCCC1` [compound 104, (2S)-2-(1-adamantyl)-2-[[4-(cyclohexylmethoxy)benzothiophene-5-carbonyl]amino]acetic acid] yielded an EC50 of 1230 nM and an Emax of 228%.

Work on `CC12CC3(C)CC(C)(C1)CC([C@H](NC(=O)c1ccc4ccccc4c1OCc1ccc(C(F)(F)F)cc1)C(=O)O)(C2)C3` [compound 59] yielded an EC50 of 291 nM and an Emax of 257%.

Work on `O=C(N[C@H](C(=O)O)C12CC3CC(CC(C3)C1)C2)c1ccc2sccc2c1OCc1ccc(Cl)c(Cl)c1` [compound 110, (2S)-2-(1-adamantyl)-2-[[4-[(3,4-dichlorophenyl)methoxy]benzothiophene-5-carbonyl]amino]acetic acid] yielded an EC50 of 382 nM and an Emax of 173%.

Work on `O=C(N[C@H](C(=O)O)C12CC3CC(CC(C3)C1)C2)c1ccc2cccnc2c1OCc1ccc(Cl)c(Cl)c1` [compound 31] yielded an EC50 of 308 nM and an Emax of 194%.

With `O=C(N[C@H](C(=O)O)C12CC3CC(CC(O)(C3)C1)C2)c1ccc2cccnc2c1OCC1CCC(F)(F)CC1` [compound 60] the EC50 was 11600 nM and the Emax was 73.1%.

From patent US12637414B2, “Arylamides and methods of use thereof” (Genzyme Corporation, priority 2019, dated 2026)
